{"source": "patent US20220105157A1", "about": "“Compositions and Methods for Promoting Angiogenesis in the Eye” (The Regents of the University of California, priority 2019, published 2022)", "key": {"[1]": {"tested_on": "phosphorylation of STAT3, ERK and AKT in BCE cells", "assay": "Western blotting of LIF signaling in BCE cells", "type": "cell-based, bovine", "details": "LIF treatment for 15 minutes", "method": "(§1) BCE and BAE cells were cultured in growth medium overnight. Growth medium was removed and then cells were washed twice with PBS. Recombinant human LIF was added to cells for 15 minutes, following 3-hour incubation in the following medium: DMEM-low glucose supplemented with 10% BCS, 2 mM glutamine and antibiotics for BCE cells, and DMEM-low glucose supplemented with 1% BCS and antibiotics for BAE cells. […] Cells were then lysed with RIPA lysis buffer (Life Technologies, CAT #89901) plus protease and phosphatase inhibitor cocktail (ThermoFisher Scientific CAT #78440). Protein concentrations in cell lysates were measured with the BCA assay (ThermoFisher Scientific CAT #23227). Equal amount of proteins were subjected to electrophoresis in NuPAGE 4-12% Bis-Tris gels (ThermoFisher Scientific, CAT #NW04125BOX) and then transferred onto PVDF membranes. Membranes were blocked with 5% non-fat milk in TBST at room temperature for 1 hour, incubated with primary antibodies indicated below in TBST containing 0.5% non-fat milk at 4° C. overnight then with secondary HRP-conjugated antibodies (1:2000, GE Healthcare) at room temperature for 1 h. Signals were developed with SuperSignal™ West Pico PLUS Chemiluminescent Substrate (ThermoFisher Scientific). Primary antibodies used: anti-phospho-STAT3 (Cell Signaling, CAT #9131, 1:3000), anti-STAT3 (Cell Signaling, CAT #4904, 1:3000), anti-phospho-ERK (Cell Signaling, CAT #4376, 1:5000), anti-ERK (Cell Signaling, CAT #4695, 1:5000), anti-phospho-AKT Ser473 (Cell Signaling, CAT #4060, 1:2000), anti-AKT (Cell Signaling, CAT #4691, 1:2000) and HRP-conjugated anti-beta-actin (Sigma, CAT #AC-15, 1; 10000)."}, "[2]": {"tested_on": "phosphorylation of STAT3, ERK and AKT in BAE cells", "assay": "Western blotting of LIF signaling in BAE cells", "type": "cell-based, bovine", "details": "LIF treatment for 15 minutes", "method": "as §1"}, "[3]": {"tested_on": "mouse choroidal explants", "assay": "Mouse choroidal explant assay (ex vivo sprouting)", "type": "cell-based", "details": "LIF 10 ng/ml, compared with control", "method": "In a 48-well plate, 60 μL of growth factor-reduced basement membrane extract (GFR-BME) (Corning, CAT #354230) was added to each well and allowed to solidify at 37° C. for 20 minutes. A dice of the peripheral choroid-scleral complex (approximately 1 mm×1 mm), dissected from male C57BL/6J mice (age P20), was added to the center of each well as previously described (23). A top layer of 60 μL GFR-BME was added to each well, followed by incubation at 37° C. for 30 minutes. Upon adding 500 μL of endothelial cell growth basal medium EBM-2 (Lonza, CAT #CC3156) supplemented with 2% FBS and antibiotics, endogenous VEGF activity of choroid explants was blunted by 5 μg/ml of anti-VEGF Mab B20-4.1.1. After 90 minutes of incubation with the antibody, 10 ng/ml of LIF or PBS control was added in the test wells. Tissues were incubated in standard cell culture conditions with 5% CO2 and fresh media were changed every 48 hours. Phase contrast Z-stack images of each explants were taken on day 5 using a Keyence microscope. Vessel sprouting areas were quantified using ImageJ software. The experiment was repeated three times and data were obtained by analyzing 5 replicates per each condition each time."}, "[4]": {"tested_on": "choroid capillaries of NaIO3-treated mice", "assay": "Sodium iodate (NaIO3) model, choroid capillary recovery", "type": "in vivo, mouse", "details": "NaIO3 20 mg/kg i.v.; intravitreal LIF 50 ng, CT-1 different doses, OSM 10 ng; OCT-A", "method": "Eight-week-old C57BL/6J mice were anesthetized with ketamine/xylazine cocktail. Sterilized NaIO3 was administered as a single intravenous injection (20 mg/kg body weight) (28) (29). Control mice were injected with PBS. PBS, LIF (50 ng), CT-1 (different doses) or OSM (10 ng) was injected intravitreally in five-mice groups. Five, seven and nine days after injection, choroid capillaries were monitored by OCT-A system. 9 days after injection, mice were killed and eyes were harvested for H&E and immunofluorescent staining. Avascular area in choroid capillaries was analyzed using ImageJ."}, "[5]": {"tested_on": "BCE cells", "assay": "Gene expression in LIF-treated BCE cells (RNA-seq, qRT-PCR)", "type": "cell-based, bovine", "method": "BCE and BAE cells, after the indicated treatments, were lysed with Trizol reagent (Invitrogen, CAT #15596026) and subjected to RNA extraction following manufacturer's instructions. RNA concentrations were determined with Nanodrop 2000 (ThermoFisher Scientific) and 1 μg of total RNAs were reverse-transcribed to cDNAs using the High-Capacity cDNA Reverse Transcription Kit (Applied Biosystems, CAT #4368814). Equal amounts (generally 10 ng/reaction) of cDNAs were subjected to qRT-PCR analyses using the TaqMan Fast Advanced Master Mix (Applied Biosystems, CAT #4444557) and the ViiA7 Real-time PCR system. Relative mRNA levels of the examined genes were normalized to the internal control RPLP0 (Ribosomal Protein Lateral Stalk Subunit P0), determined by comparing with control sample group, and reported as fold changes. TaqMan gene expression assay probes were used: bovine RPLP0 (Bt03218086_ml), bovine STAT3 (Bt03259865_ml), bovine CTSL1 (Bt03257307_ml and Bt03257309_ml), bovine CTSB (Bt03259161_ml), bovine MYC (Bt03260377_ml), bovine JunB (Bt03246919_s1), bovine CCNA2 (Bt03240503_g1), bovine CCNB1 (Bt03237853_g1), and bovine PIM1 (Bt03212957_ml). The experiment was carried out in triplicate and repeated three times."}}}
{"substance": "LIF: recombinant human leukemia inhibitory factor, a member of the IL-6 family of cytokines", "values": [{"measurement": "AKT phosphorylation", "setting": "[1]", "result": "little effects"}, {"measurement": "phosphorylation of ERK", "setting": "[1]", "result": "elicited phosphorylation"}, {"measurement": "phosphorylation of STAT3", "setting": "[1]", "result": "elicited phosphorylation"}, {"measurement": "phosphorylation of AKT", "setting": "[2]", "result": "led to phosphorylation"}, {"measurement": "phosphorylation of ERK (MAPK)", "setting": "[2]", "result": "led to phosphorylation"}, {"measurement": "phosphorylation of STAT3", "setting": "[2]", "result": "led to phosphorylation"}, {"measurement": "microvascular outgrowth from the choroidal explant into the matrigel", "setting": "[3]", "result": "significantly enhanced"}, {"measurement": "avascular areas in choroid compared to PBS group", "setting": "[4]", "result": "reduced avascular areas"}, {"measurement": "upregulation of IGFBP3", "setting": "[5]; BCE cells incubated with LIF for 6 hours, RNA-seq", "result": "not in BCE cells"}, {"measurement": "MYC expression", "setting": "[5]; BCE cells, LIF treatment", "result": "upregulation"}, {"measurement": "cathepsin L mRNA (CTSL) levels", "setting": "[5]; BCE cells, vehicle or LIF, qRT-PCR", "result": "not detectable"}]}
